Assay results from PMC10882719 (Frontiers in Neuroscience, 2024).
Read-outs that look alike come from different tables or passages of the source.

Legend:
Format in all cases: cell-based
168 GPCRs [1] = molecular target: T1, 168 GPCRs (Homo sapiens, UniProt Q96LB1)
T1 construct: host or cells: PathHunter cell lines
T1 sequence (Q96LB1 1-330): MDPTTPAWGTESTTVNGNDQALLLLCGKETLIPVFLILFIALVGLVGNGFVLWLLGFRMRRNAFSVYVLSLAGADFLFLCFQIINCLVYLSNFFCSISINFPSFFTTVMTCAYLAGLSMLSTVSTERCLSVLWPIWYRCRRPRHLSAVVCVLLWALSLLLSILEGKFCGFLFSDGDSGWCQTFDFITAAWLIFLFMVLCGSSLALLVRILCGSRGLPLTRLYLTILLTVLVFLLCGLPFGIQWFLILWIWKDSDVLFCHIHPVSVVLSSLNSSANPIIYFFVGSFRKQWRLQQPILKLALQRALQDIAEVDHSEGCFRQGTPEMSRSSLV

168 GPCRs [2] = molecular target: T2, 168 GPCRs (Homo sapiens, UniProt P30556)
T2 construct: host or cells: PathHunter cell lines
T2 sequence (P30556 1-359): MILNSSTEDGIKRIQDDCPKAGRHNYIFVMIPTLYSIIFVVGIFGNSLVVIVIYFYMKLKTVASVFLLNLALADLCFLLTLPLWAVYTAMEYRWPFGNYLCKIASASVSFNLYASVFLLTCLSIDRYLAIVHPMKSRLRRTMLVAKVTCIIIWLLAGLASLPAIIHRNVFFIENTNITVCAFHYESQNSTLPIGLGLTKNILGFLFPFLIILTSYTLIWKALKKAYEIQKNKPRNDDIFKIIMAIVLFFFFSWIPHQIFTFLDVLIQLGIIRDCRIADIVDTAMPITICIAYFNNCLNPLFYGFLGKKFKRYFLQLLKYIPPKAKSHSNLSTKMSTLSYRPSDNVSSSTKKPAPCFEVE

168 GPCRs [3] = molecular target: T3, 168 GPCRs (Homo sapiens, UniProt P21728)
T3 construct: host or cells: PathHunter cell lines

168 GPCRs [4] = molecular target: T4, 168 GPCRs (Homo sapiens, UniProt P49019); conditions: GPR109B
T4 construct: host or cells: PathHunter cell lines

168 GPCRs [5] = molecular target: T5, 168 GPCRs (Homo sapiens, UniProt P23945); conditions: FSHR
T5 construct: host or cells: PathHunter cell lines
T5 sequence (P23945 18-695): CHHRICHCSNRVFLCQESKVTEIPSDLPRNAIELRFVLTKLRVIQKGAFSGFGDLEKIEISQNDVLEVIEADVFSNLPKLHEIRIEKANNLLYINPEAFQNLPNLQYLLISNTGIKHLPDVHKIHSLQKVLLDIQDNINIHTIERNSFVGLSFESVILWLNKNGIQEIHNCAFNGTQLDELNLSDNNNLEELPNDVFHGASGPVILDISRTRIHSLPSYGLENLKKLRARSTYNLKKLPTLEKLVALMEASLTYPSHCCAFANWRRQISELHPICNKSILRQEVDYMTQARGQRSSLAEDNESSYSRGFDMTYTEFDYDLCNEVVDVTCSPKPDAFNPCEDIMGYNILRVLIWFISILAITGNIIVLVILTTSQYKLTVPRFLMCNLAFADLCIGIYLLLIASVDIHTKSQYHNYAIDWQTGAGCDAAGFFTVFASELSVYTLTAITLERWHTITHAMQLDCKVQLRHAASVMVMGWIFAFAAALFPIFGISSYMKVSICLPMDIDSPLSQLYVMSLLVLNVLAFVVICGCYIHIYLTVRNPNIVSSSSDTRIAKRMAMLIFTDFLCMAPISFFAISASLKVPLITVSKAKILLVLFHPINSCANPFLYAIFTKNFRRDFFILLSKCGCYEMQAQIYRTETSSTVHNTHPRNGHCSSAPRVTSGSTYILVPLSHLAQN

168 GPCRs [6] = molecular target: T6, 168 GPCRs (Homo sapiens, UniProt P28566); conditions: HTR1E
T6 construct: host or cells: PathHunter cell lines

168 GPCRs [7] = molecular target: T7, 168 GPCRs (Homo sapiens, UniProt P20309)
T7 construct: host or cells: PathHunter cell lines

168 GPCRs [8] = molecular target: T8, 168 GPCRs (Homo sapiens, UniProt P47872); conditions: SCTR
T8 construct: host or cells: PathHunter cell lines
T8 sequence (P47872 23-440): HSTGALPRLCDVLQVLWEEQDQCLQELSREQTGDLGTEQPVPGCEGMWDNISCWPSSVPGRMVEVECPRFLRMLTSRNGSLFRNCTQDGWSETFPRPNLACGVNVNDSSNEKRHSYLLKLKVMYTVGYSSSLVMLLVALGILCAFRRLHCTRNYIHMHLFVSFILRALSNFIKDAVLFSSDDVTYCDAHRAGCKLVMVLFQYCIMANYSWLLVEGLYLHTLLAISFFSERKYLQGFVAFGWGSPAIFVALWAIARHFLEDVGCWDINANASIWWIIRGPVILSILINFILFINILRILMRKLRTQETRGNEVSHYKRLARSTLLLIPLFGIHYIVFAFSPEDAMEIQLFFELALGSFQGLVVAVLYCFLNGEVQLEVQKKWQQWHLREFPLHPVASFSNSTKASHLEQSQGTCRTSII

T6 sequence (P28566 whole entry): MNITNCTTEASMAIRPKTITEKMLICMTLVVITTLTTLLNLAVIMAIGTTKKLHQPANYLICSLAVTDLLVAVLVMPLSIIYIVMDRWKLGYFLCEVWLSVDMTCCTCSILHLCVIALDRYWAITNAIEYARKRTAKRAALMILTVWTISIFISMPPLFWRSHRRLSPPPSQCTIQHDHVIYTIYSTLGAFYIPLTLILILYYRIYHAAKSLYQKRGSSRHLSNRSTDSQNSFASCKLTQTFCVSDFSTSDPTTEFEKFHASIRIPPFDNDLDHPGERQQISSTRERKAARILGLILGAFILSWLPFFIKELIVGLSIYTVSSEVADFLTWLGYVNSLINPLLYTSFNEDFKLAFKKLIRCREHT
T4 sequence (P49019 whole entry): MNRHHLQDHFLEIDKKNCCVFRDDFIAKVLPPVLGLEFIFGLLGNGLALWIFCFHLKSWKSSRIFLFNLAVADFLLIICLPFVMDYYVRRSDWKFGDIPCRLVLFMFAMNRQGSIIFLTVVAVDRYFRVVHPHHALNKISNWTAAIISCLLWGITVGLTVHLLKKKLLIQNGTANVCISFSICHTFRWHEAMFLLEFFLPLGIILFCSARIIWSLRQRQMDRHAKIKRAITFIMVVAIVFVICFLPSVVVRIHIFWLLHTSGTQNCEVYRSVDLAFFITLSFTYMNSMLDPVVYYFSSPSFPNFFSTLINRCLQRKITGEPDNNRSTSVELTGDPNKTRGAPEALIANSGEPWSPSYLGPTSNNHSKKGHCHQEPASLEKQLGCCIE
T7 sequence (P20309 whole entry): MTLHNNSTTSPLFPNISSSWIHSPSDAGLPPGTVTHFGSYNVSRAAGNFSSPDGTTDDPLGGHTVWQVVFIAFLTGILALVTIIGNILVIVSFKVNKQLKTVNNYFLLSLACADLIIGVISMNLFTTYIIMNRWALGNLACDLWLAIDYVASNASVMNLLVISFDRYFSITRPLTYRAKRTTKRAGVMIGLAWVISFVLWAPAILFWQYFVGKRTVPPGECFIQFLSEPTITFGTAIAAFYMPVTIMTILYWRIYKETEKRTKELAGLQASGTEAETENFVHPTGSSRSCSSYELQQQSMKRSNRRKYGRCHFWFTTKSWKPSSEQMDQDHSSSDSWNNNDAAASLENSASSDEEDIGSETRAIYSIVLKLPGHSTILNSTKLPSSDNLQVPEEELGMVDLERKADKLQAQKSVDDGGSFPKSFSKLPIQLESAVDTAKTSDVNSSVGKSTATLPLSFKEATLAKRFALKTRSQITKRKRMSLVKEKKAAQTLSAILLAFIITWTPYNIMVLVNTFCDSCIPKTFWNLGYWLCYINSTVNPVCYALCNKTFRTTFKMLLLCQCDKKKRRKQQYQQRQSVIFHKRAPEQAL
T3 sequence (P21728 whole entry): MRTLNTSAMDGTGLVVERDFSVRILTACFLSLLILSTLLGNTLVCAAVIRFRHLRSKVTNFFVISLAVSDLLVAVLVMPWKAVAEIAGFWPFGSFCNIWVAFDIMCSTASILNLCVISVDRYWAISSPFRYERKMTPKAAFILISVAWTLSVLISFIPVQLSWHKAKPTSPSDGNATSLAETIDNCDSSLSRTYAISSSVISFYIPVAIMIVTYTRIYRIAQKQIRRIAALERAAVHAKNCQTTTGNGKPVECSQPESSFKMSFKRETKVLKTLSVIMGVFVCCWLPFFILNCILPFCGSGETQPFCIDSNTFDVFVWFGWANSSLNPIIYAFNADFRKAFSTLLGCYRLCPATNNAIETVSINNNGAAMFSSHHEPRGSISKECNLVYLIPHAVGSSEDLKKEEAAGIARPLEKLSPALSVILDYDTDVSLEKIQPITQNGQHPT

Structure (SMILES) | % Agonist Activity (168 GPCRs [1]; MRGPRX2, 1 uM) [%] | % Antagonist Activity (168 GPCRs [1]; MRGPRX2, 1 uM) [%] | % Agonist Activity (168 GPCRs [1]; MRGPRX2, 10 uM) [%] | % Antagonist Activity (168 GPCRs [1]; MRGPRX2, 10 uM) [%] | % Agonist Activity (168 GPCRs [2]; AGTR1, 1 uM) [%] | % Antagonist Activity (168 GPCRs [2]; AGTR1, 1 uM) [%] | % Agonist Activity (168 GPCRs [2]; AGTR1, 10 uM) [%] | % Antagonist Activity (168 GPCRs [2]; AGTR1, 10 uM) [%] | % Agonist Activity (168 GPCRs [3]; DRD1, 1 uM) [%] | % Antagonist Activity (168 GPCRs [3]; DRD1, 1 uM) [%] | % Agonist Activity (168 GPCRs [3]; DRD1, 10 uM) [%] | % Antagonist Activity (168 GPCRs [3]; DRD1, 10 uM) [%] | % Agonist Activity (168 GPCRs [4]; 1 uM) [%] | % Antagonist Activity (168 GPCRs [4]; 1 uM) [%] | % Agonist Activity (168 GPCRs [4]; 10 uM) [%] | % Antagonist Activity (168 GPCRs [4]; 10 uM) [%] | % Agonist Activity (168 GPCRs [5]; 1 uM) [%] | % Antagonist Activity (168 GPCRs [5]; 1 uM) [%] | % Agonist Activity (168 GPCRs [5]; 10 uM) [%] | % Antagonist Activity (168 GPCRs [5]; 10 uM) [%] | also measured
CNC(C)Cc1ccc2c(c1)OCO2 (stereo not shown) [MDMA, 3,4-Methylenedioxy methamphetamine, reference compound] | -0.8 | -6 | -0.8 | 1.9 | 3.5 | -17.7 | 3.2 | -14.5 | -1 | -0.5 | -0.8 | 6 | 0.7 | -15.2 | 1.4 | -11.4 | 0.7 | 3.2 | -0.1 | -5.8 | % Agonist Activity (168 GPCRs [6]; 1 uM): 1.9%; % Antagonist Activity (168 GPCRs [6]; 1 uM): 18%; % Agonist Activity (168 GPCRs [6]; 10 uM): 1.1%; % Antagonist Activity (168 GPCRs [6]; 10 uM): 12.7%; % Agonist Activity (168 GPCRs [7]; CHRM3, 1 uM): 5.1%; % Antagonist Activity (168 GPCRs [7]; CHRM3, 1 uM): -9.4%; % Agonist Activity (168 GPCRs [7]; CHRM3, 10 uM): 4.3%; % Antagonist Activity (168 GPCRs [7]; CHRM3, 10 uM): 1.4%; % Agonist Activity (168 GPCRs [8]; Conc 1 uM): 0.1%; % Antagonist Activity (168 GPCRs [8]; Conc 1 uM): -3.8%; % Agonist Activity (168 GPCRs [8]; Conc 10 uM): -1.9%; % Antagonist Activity (168 GPCRs [8]; Conc 10 uM): 7.4%
CNC(C)C(=O)c1ccc2c(c1)OCO2 (stereo not shown) [methylone] | 1.4 | 16.2 | 0.7 | 8.9 | -2.8 | 3.3 | -1 | -1.4 | -1.6 | 6 | -1.6 | 7.8 | 1 | -16.5 | 0.5 | -20.2 | -1 | -11.8 | -2.2 | -8.4 | % Agonist Activity (168 GPCRs [6]; 1 uM): -3.5%; % Antagonist Activity (168 GPCRs [6]; 1 uM): 7.6%; % Agonist Activity (168 GPCRs [6]; 10 uM): 0.2%; % Antagonist Activity (168 GPCRs [6]; 10 uM): 13.2%; % Agonist Activity (168 GPCRs [7]; CHRM3, 1 uM): 6%; % Antagonist Activity (168 GPCRs [7]; CHRM3, 1 uM): -5.5%; % Agonist Activity (168 GPCRs [7]; CHRM3, 10 uM): 6%; % Antagonist Activity (168 GPCRs [7]; CHRM3, 10 uM): 14.6%; % Agonist Activity (168 GPCRs [8]; Conc 1 uM): -2.6%; % Antagonist Activity (168 GPCRs [8]; Conc 1 uM): 5.3%; % Agonist Activity (168 GPCRs [8]; Conc 10 uM): -1.4%; % Antagonist Activity (168 GPCRs [8]; Conc 10 uM): 2.5%
